Results reported in ChEMBL document CHEMBL6092203, “Discovery of Novel PROTAC-Based HPK1 Degraders with High Potency and Selectivity for Cancer Immunotherapy” (J Med Chem, 2024).

Key:
MC-38 [1] = test: Antitumor activity against mouse MC38 cells implanted in C57BL/6J mouse assessed as tumor growth inhibition at 1 mg/kg, po BID measured after 4 weeks; format: functional; conditions: MC-38, 672 h, read-out: TGI
MC-38 [2] = test: Antitumor activity against mouse MC38 cells implanted in C57BL/6J mouse assessed as tumor growth inhibition at 10 mg/kg, po BID measured after 4 weeks; format: functional; conditions: MC-38, 672 h, read-out: TGI
MC-38 [3] = test: Synergistic antitumor activity against mouse MC38 cells implanted in C57BL/6J mouse assessed as tumor growth inhibition at 1 mg/kg, po bid measured after 4 weeks in presence of 5 mg/kg anti-PD1 and measured twice a week; format: functional; conditions: MC-38, 672 h, read-out: TGI
MC-38 [4] = test: Synergistic antitumor activity against mouse MC38 cells implanted in C57BL/6J mouse assessed as tumor growth inhibition at 10 mg/kg, po bid measured after 4 weeks in presence of 5 mg/kg anti-PD1 and measured twice a week; format: functional; conditions: MC-38, 672 h, read-out: TGI
MC-38 [5] = test: Antitumor activity against mouse MC38 cells implanted in C57BL/6J mouse assessed as reduction in tumor volume at 1 mg/kg, po BID administered for 3 to 4 weeks (reference value: 1549.22 +/- 217.92 mm3); format: functional; conditions: time 3-4 weeks
MC-38 [6] = test: Antitumor activity against mouse MC38 cells implanted in C57BL/6J mouse assessed as reduction in tumor volume at 10 mg/kg, po BID administered for 3 to 4 weeks (reference value: 1549.22 +/- 217.92 mm3); format: functional; conditions: time 3-4 weeks
MC-38 [7] = test: Synergistic antitumor activity against mouse MC38 cells implanted in C57BL/6J mouse assessed as reduction in tumor volume at 1 mg/kg, po bid administered for 3 to 4 weeks in presence of 5 mg/kg anti-PD1 and measured twice a week (reference value: 1549.22 +/- 217.92 mm3); format: functional; conditions: time 3-4 weeks
MC-38 [8] = test: Synergistic antitumor activity against mouse MC38 cells implanted in C57BL/6J mouse assessed as reduction in tumor volume at 10 mg/kg, po bid administered for 3 to 4 weeks in presence of 5 mg/kg anti-PD1 and measured twice a week (reference value: 1549.22 +/- 217.92 mm3); format: functional; conditions: time 3-4 weeks
MC-38 [9] = test: Antitumor activity against mouse MC38 cells implanted in C57BL/6J mouse assessed as reduction in tumor weight at 1 mg/kg, po BID administered for 3 to 4 weeks (reference value: 1.79 +/- 0.24 g); format: functional; conditions: time 3-4 weeks
MC-38 [10] = test: Antitumor activity against mouse MC38 cells implanted in C57BL/6J mouse assessed as reduction in tumor weight at 10 mg/kg, po BID administered for 3 to 4 weeks (reference value: 1.79 +/- 0.24 g); format: functional; conditions: time 3-4 weeks
MC-38 [11] = test: Synergistic antitumor activity against mouse MC38 cells implanted in C57BL/6J mouse assessed as reduction in tumor weight at 1 mg/kg, po bid administered for 3 to 4 weeks in presence of 5 mg/kg anti-PD1 and measured twice a week (reference value: 1.79 +/- 0.24 g); format: functional; conditions: time 3-4 weeks
MC-38 [12] = test: Synergistic antitumor activity against mouse MC38 cells implanted in C57BL/6J mouse assessed as reduction in tumor weight at 10 mg/kg, po bid administered for 3 to 4 weeks in presence of 5 mg/kg anti-PD1 and measured twice a week (reference value: 1.79 +/- 0.24 g); format: functional; conditions: time 3-4 weeks
MC-38 [13] = test: Antitumor activity against mouse MC38 cells implanted in C57BL/6J mouse assessed as tumor weight inhibition rate at 1 mg/kg, po BID measured after 4 weeks; format: functional; set-up: scale not given: the % may be the effect or the level left
MC-38 [14] = test: Antitumor activity against mouse MC38 cells implanted in C57BL/6J mouse assessed as tumor weight inhibition rate at 10 mg/kg, po BID measured after 4 weeks; format: functional; set-up: scale not given: the % may be the effect or the level left
MC-38 [15] = test: Synergistic antitumor activity against mouse MC38 cells implanted in C57BL/6J mouse assessed as tumor weight inhibition rate at 1 mg/kg, po bid measured after 4 weeks in presence of 5 mg/kg anti-PD1 and measured twice a week; format: functional; set-up: scale not given: the % may be the effect or the level left
MC-38 [16] = test: Synergistic antitumor activity against mouse MC38 cells implanted in C57BL/6J mouse assessed as tumor weight inhibition rate at 10 mg/kg, po bid measured after 4 weeks in presence of 5 mg/kg anti-PD1 and measured twice a week; format: functional; set-up: scale not given: the % may be the effect or the level left
[17] = biological target: Protein cereblon/Mitogen-activated protein kinase kinase kinase kinase 1 (Homo sapiens, UniProt Q92918+Q96SW2); test: PROTAC activity at CRBN/HPK1 in human Jurkat cells incubated for 24 hrs by Western blotting analysis; format: cell-based
[18] = biological target: Mitogen-activated protein kinase kinase kinase kinase 1 (Homo sapiens, UniProt Q92918); test: Induction of HPK1 (unknown origin) degradation
Sequence of Mitogen-activated protein kinase kinase kinase kinase 1 (Q92918 whole entry): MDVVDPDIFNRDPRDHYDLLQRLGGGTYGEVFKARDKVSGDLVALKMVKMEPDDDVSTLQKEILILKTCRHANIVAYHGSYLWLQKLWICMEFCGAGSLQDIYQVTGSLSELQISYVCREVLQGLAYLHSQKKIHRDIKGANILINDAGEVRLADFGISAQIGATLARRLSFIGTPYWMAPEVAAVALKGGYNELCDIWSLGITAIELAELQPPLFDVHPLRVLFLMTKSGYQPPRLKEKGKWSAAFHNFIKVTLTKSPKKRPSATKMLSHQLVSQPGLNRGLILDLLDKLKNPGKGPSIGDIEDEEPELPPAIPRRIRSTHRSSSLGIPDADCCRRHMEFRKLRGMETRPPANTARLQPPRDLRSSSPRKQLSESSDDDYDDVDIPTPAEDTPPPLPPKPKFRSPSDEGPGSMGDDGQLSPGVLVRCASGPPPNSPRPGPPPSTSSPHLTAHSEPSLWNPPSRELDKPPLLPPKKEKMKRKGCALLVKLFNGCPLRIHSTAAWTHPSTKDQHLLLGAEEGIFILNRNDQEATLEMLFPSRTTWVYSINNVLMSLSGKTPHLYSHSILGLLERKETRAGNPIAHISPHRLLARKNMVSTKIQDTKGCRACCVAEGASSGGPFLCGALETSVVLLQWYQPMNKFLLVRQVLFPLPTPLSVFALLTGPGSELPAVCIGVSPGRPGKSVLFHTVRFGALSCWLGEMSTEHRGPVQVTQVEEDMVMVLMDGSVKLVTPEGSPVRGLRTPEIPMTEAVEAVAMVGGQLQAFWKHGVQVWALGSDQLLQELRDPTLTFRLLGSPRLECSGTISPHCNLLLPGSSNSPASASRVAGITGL

Sequence of Protein cereblon/Mitogen-activated protein kinase kinase kinase kinase 1 (Q92918 whole entry): as above
Sequence of Protein cereblon/Mitogen-activated protein kinase kinase kinase kinase 1 (Q96SW2 whole entry): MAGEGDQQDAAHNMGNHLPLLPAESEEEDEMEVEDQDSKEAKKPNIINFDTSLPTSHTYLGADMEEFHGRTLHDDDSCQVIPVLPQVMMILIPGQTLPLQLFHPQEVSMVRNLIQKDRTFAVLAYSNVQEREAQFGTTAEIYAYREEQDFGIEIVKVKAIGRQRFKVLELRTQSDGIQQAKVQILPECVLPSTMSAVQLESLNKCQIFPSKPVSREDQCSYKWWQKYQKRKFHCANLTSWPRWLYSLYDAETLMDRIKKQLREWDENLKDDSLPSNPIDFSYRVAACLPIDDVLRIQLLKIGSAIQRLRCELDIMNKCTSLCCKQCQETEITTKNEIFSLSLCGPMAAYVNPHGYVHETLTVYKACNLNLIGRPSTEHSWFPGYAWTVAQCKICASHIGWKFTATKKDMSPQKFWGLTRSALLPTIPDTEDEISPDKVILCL

| DC50 [17] | DC50 [18] | Compound | inhibition in vivo at 1 mg/kg (MC-38 [1]) | inhibition in vivo at 10 mg/kg (MC-38 [2]) | inhibition in vivo at 1 mg/kg (MC-38 [3]) | inhibition in vivo at 10 mg/kg (MC-38 [4]) | Activity (MC-38 [5]) | Activity (MC-38 [6]) | Activity (MC-38 [7]) | Activity (MC-38 [8]) | Activity (MC-38 [9]) | Activity (MC-38 [10]) | Activity (MC-38 [11]) | Activity (MC-38 [12]) | Activity (MC-38 [13]) | Activity (MC-38 [14]) | Activity (MC-38 [15]) | Activity (MC-38 [16]) |
| --- | --- | --- | --- | --- | --- | --- | --- | --- | --- | --- | --- | --- | --- | --- | --- | --- | --- | --- |
| – | – | CCC(CC)n1cc(Oc2nc(-c3cc(C)c(C(=O)NCCN4CC[C@@H](F)C4)c(C)c3)cnc2N)cn1 | 12.9% | -22.4% | 76.3% | 72.6% | 1349.36 mm3 | 1896.55 mm3 | 367.21 mm3 | 423.84 mm3 | 2.04 g | 2.27 g | 0.48 g | 0.57 g | -13.75% | -26.45% | 73.27% | 68.3% |
| 21.4 nM | 1.8 nM | CN1CCC(n2cc(-c3c[nH]c4ncc(-c5ccc(N6CCC(CC7CCN(C(=O)c8ccc(Cl)c(N9CCC(=O)NC9=O)c8)CC7)CC6)nc5)nc34)cn2)CC1 | – | – | – | – | – | – | – | – | – | – | – | – | – | – | – | – |
